From BindingDB's records for patent US20250034134 (Wuhan Humanwell Innovative Drug Research and Development …, 2025)

molecular target: T1, 15-hydroxyprostaglandin dehydrogenase [NAD(+)] (Homo sapiens, UniProt P15428); experiment: Inhibition test of compounds on 15-PGDH enzyme
T1 sequence (P15428 whole entry): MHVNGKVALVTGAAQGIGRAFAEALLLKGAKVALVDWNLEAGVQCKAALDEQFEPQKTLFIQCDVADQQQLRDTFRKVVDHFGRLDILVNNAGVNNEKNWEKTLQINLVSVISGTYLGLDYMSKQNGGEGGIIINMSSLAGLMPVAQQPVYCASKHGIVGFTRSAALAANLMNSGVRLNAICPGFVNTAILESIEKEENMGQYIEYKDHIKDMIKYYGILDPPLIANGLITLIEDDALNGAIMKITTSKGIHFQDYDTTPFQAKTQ
Procedure: 15-PGDH (R&D Systems, Cat. No.: 5660-DH-010) was prepared to twice the final concentration, i.e., 30 nM, using Assay Buffer (50 mM Tris-HCl, pH 7.5, 0.01vol % Tween 20). The obtained mixture was then added to a 384-well white plate (Cisbio Bioassays, Cat. No. 66PL384025) at 8 μL/well. Negative control wells (with Assay Buffer only and without enzyme) were set. The compound was then prepared to 4 times the final concentration using Assay Buffer, i.e., diluted 3-fold to 10 concentrations starting from 4000 nM. The obtained mixture was added to the above white plate at 4 μL/well, mixed well, centrifuged at 1000 rpm for 1 minute, and incubated at 25° C. for 10 minutes. Both positive control wells (with 15-PGDH only) and negative control wells (without 15-PGDH) were set. A mixture of NAD+(Select, Cat. No. S2518) and PGE2 (R&D Systems, Cat. No.: 2296/10) was then prepared using Assay Buffer. NAD+ and PGE2 were prepared to four times their final concentrations, i.e., 2 mM and 0.12 mM, respectively, using Assay Buffer. The obtained mixture was then added to the above white plate at 4 μL/well, mixed well, centrifuged at 1000 rpm for 1 minute, and incubated at 25° C. for 30 minutes for the reaction. The fluorescence was detected at an excitation wavelength of 340 nm and an emission wavelength of 485 nm using instrument TECAN SPARK 20M.

IC50 [nM] | SMILES
7.42 | Cn1ccc2c(c1=O)=CCC(N1C[C@H]3C[C@@H]3C3C=C(C(=O)N4CCC(F)(F)CC4)C=NC31)C=2 (some centres not stated) [US20250034134, Compound I-12B]
5.15 | CN1CC2=CC(N3CC4CC4C4C=C(C(=O)N5CCC(F)(F)CC5)C=NC43)CN=C2C1=O (configuration not stated) [US20250034134, Compound I-2]
1.52 | Cn1ccc2c(c1=O)=CCC(N1C[C@@H]3C[C@@H]3C3C=C(C(=O)N4CCC(F)(F)CC4)C=NC31)C=2 (some centres not stated) [US20250034134, Compound I-12A]
3.58 | CN1NC2C=C(N3C[C@H]4C[C@@H]4C4C=C(C(=O)N5CCC(F)(F)CC5)C=NC43)C=CN2C1=O (some centres not stated) [US20250034134, Compound I-3B]
3.72 | CN1C(=O)C2=NCC(N3CC4CC4C4C=C(C(=O)N5CCC(F)(F)CC5)C=NC43)C=C2C12CC2 (configuration not stated) [US20250034134, Compound I-19]
5.4 | O=C(C1=CC2C3CC3CN(C3=CC4NC=NN4C=C3)C2N=C1)N1CCC(F)(F)CC1 (configuration not stated) [US20250034134, Compound I-16]
2.1 | Cn1ccc2c(c1=O)=CCC(N1CC3CC3C3C=C(C(=O)N4CCC(F)(F)CC4)C=NC31)C=2 (configuration not stated) [US20250034134, Compound I-12]

The next lines start with the compound.

SMILES | IC50 [nM]
CN1NC2C=C(N3CC4CC4C4C=C(C(=O)N5CCCC(F)(F)C5)C=NC43)C=CN2C1=O (configuration not stated) [US20250034134, Compound I-24] | 4.23
CN1C=NC2C=C(N3CC4CC4C4C=C(C(=O)N5CCC(F)(F)CC5)C=CC43)C=NC2C1=O (configuration not stated) [US20250034134, Compound I-15] | 5.7
Cn1nc2cc(N3CC4CC4C4C=C(C(=O)N5CCCC(C(F)(F)F)C5)C=NC43)ccn2c1=O (configuration not stated) [US20250034134, Compound I-26] | 9.9
[2H]C([2H])([2H])N1NC2C=C(N3C[C@H]4C[C@@H]4C4C=C(C(=O)N5CCC(F)(F)CC5)C=NC43)C=CN2C1=O (some centres not stated) [US20250034134, Compound I-25B] | 3.78
CN1NC2C=C(N3CC4CC4C4C=C(C(=O)N5CCCC(F)C5)C=NC43)C=CN2C1=O (configuration not stated) [US20250034134, Compound I-27] | 5.7
N#Cc1ccc(N2CC3CC3C3C=C(C(=O)N4CCC(F)(F)CC4)C=NC32)cc1 (configuration not stated) [US20250034134, Compound I-11] | 3.8
CN1NC2C=C(N3CC4CC4C4C=C(C(=O)N5CCC(F)(F)C5)C=NC43)C=CN2C1=O (configuration not stated) [US20250034134, Compound I-21] | 4.95
CN1NC2C=C(N3CC4CC4C4C=C(C(=O)N5CCC6(CC5)CC6)C=NC43)C=CN2C1=O (configuration not stated) [US20250034134, Compound I-28] | 1.71
CNC(=O)c1ccc(N2CC3CC3C3C=C(C(=O)N4CCC(F)(F)CC4)C=NC32)cc1F (configuration not stated) [US20250034134, Compound I-9] | 9.51
Cn1nc2cc(N3CC4CC4C4C=C(C(=O)N5CCOCC5)C=NC43)ccn2c1=O (configuration not stated) [US20250034134, Compound I-22] | 10.2
CN1NC2C=C(N3CC4CC4C4C=C(C(=O)N5CCCC(C(F)F)C5)C=NC43)C=CN2C1=O (configuration not stated) [US20250034134, Compound I-23] | 4.26
CN1NC2C=C(N3CC4CC4C4C=C(C(=O)N5CCC[C@@H](CF)C5)C=NC43)C=CN2C1=O (some centres not stated) [US20250034134, Compound I-30] | 6
[2H]C([2H])([2H])N1NC2C=C(N3CC4CC4C4C=C(C(=O)N5CCC(F)(F)CC5)C=NC43)C=CN2C1=O (configuration not stated) [US20250034134, Compound I-25] | 2.59
O=C(C1=CC2C3CC3CN(C3=CC4NN=CN4C=C3)C2N=C1)N1CCC(F)(F)CC1 (configuration not stated) [US20250034134, Compound I-17] | 4.5
CN1NC2C=C(N3CC4CC4C4C=C(C(=O)N5CC6CC6C5)C=NC43)C=CN2C1=O (configuration not stated) [US20250034134, Compound I-29] | 5.3
